Experimental data published in patent publication US8648066B2 (Exelixis, Inc., priority 2009, dated 2014).

molecular target: mTOR/GbL/Raptor (mTORC1) (Homo sapiens, UniProt P42345); assay: mTOR/GbL/Raptor (mTORC1) ELISA assay; assay type: biochemical; conditions: phosphorylation of 4E-BP1; 0.2 nM mTORC1, 10 μM ATP; read-out: IC50 in this assay (mTORC1 ELISA)
In short: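 ELISA read-out: phospho-4E-BP1 captured on Ni-chelate plates and detected with anti-phospho antibody plus HRP-anti-IgG luminescence. The kinase step ran 120 min at ambient temperature with 0.2 nM human mTORC1, 10 µM ATP, 50 nM His-4E-BP1, 10 mM MnCl2, pH 7.2 HEPES.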

IC50 [nM]	Structure (SMILES)
10 to 50	CC1(C)CCc2ncnc(N3CCOc4ccc(-c5cnc(N)c(S(C)(=O)=O)c5)cc4C3)c2C1 [Example 512, 5-[4-(6,6-dimethyl-5,6,7,8-tetrahydroquinazolin-4-yl)-2,3,4,5-tetrahydro-1,4-benzoxazepin-7-yl]-3-(methylsulfonyl)pyridin-2-amine]
50 to 250	CC1(C)CCc2ncnc(N3CCOc4ccc(-c5cnc(N)c(S(=O)(=O)N6CCOCC6)c5)cc4C3)c2C1 [Example 513, 5-[4-(6,6-dimethyl-5,6,7,8-tetrahydroquinazolin-4-yl)-2,3,4,5-tetrahydro-1,4-benzoxazepin-7-yl]-3-(morpholin-4-ylsulfonyl)pyridin-2-amine]
≤ 10	CC1(C)CCc2ncnc(N3CCOc4ccc(-c5cnc(N)c(S(=O)(=O)N6CCNCC6)c5)cc4C3)c2C1 [Example 514, 5-[4-(6,6-dimethyl-5,6,7,8-tetrahydroquinazolin-4-yl)-2,3,4,5-tetrahydro-1,4-benzoxazepin-7-yl]-3-(piperazin-1-ylsulfonyl)puridin-2-amine]
50 to 250	CC1(C)CCc2ncnc(N3CCOc4ccc(-c5cnc(N)c(S(=O)(=O)N6CCCC6)c5)cc4C3)c2C1 [Example 515, 5-[4-(6,6-dimethyl-5,6,7,8-tetrahydroquinazolin-4-yl)-2,3,4,5-tetrahydro-1,4-benzoxazepin-7-yl]-3-(pyrrolidin-1-ylsulfonyl)pyridin-2-amine]
50 to 250	CN1CCN(S(=O)(=O)c2cc(-c3ccc4c(c3)CN(c3ncnc5c3CC(C)(C)CC5)CCO4)cnc2N)CC1 [Example 516, 5-[4-(6,6-dimethyl-5,6,7,8-tetrahydroquinazolin-4-yl)-2,3,4,5-tetrahydro-1,4-benzoxazepin-7-yl]-3-[(4-methylpiperazin-1-yl)sulfonyl]pyridin-2-amine]
10 to 50	CC1(C)CCc2ncnc(N3CCOc4ccc(-c5cnc(N)c(CS(C)(=O)=O)c5)cc4C3)c2C1 [Example 517, 5-[4-(6,6-dimethyl-5,6,7,8-tetrahydroquinazolin-4-yl)-2,3,4,5-tetrahydro-1,4-benzoxazepin-7-yl]-3-[(methylsulfonyl)methyl] pyridin-2-amine]
50 to 250	CN1C[C@@H]2C[C@H]1CN2S(=O)(=O)c1cc(-c2ccc3c(c2)CN(c2ncnc4c2CC(C)(C)CC4)CCO3)cnc1N [Example 518, 5-[4-(6,6-dimethyl-5,6,7,8-tetrahydroquinazolin-4-yl)-2,3,4,5-tetrahydro-1,4-benzoxazepin-7-yl]-3-{[(1S,4S)-5-methyl-2,5-diazabicyclo[2.2.1]hept-2-yl]sulfonyl}pyridin-2-amine]
10 to 50	CNC1CN(S(=O)(=O)c2cc(-c3ccc4c(c3)CN(c3ncnc5c3CC(C)(C)CC5)CCO4)cnc2N)C1 [Example 519, 5-[4-(6,6-dimethyl-5,6,7,8-tetrahydroquinazolin-4-yl)-2,3,4,5-tetrahydro-1,4-benzoxazepin-7-yl]-3-{[3-(methylamino)azetidin-1-yl]sulfonyl}pyridin-2-amine]
≤ 10	CNc1ncc(-c2ccc3c(c2)CN(c2ncnc4c2CC(C)(C)CC4)CCO3)cc1S(=O)(=O)NCCO [Example 520, 5-[4-(6,6-dimethyl-5,6,7,8-tetrahydroquinazolin-4-yl)-2,3,4,5-tetrahydro-1,4-benzoxazepin-7-yl]-N-(2-hydroxyethyl)-2-(methylamino)pyridine-3-sulfonamide]
250 to 1000	CN(C)S(=O)(=O)c1cncc(-c2ccc3c(c2)CN(c2ncnc4c2CC(C)(C)CC4)CCO3)c1 [Example 521, 5-[4-(6,6-dimethyl-5,6,7,8-tetrahydroquinazolin-4-yl)-2,3,4,5-tetrahydro-1,4-benzoxazepin-7-yl]-N,N-dimethylpyridine-3-sulfonamide]
250 to 1000	CC1(C)CCc2ncnc(N3CCOc4ccc(-c5cncc(S(N)(=O)=O)c5)cc4C3)c2C1 [Example 522, 5-[4-(6,6-dimethyl-5,6,7,8-tetrahydroquinazolin-4-yl)-2,3,4,5-tetrahydro-1,4-benzoxazepin-7-yl]pyridin-3-sulfonamide]
50 to 250	CC1(C)CCc2ncnc(N3CCOc4ccc(-c5cnc(N)nc5)cc4C3)c2C1 [Example 523, 5-[4-(6,6-dimethyl-5,6,7,8-tetrahydroquinazolin-4-yl)-2,3,4,5-tetrahydro-1,4-benzoxazepin-7-yl]pyrimidin-2-amine]
1000 to 2000	COc1ccc2c(N3CCOc4ccc(-c5ccc6c(c5)CC(=O)N6)cc4C3)nc(C)nc2c1 [Example 524, 5-{4-[2-methyl-7-(methyloxy)quinazolin-4-yl]-2,3,4,5-tetrahydro-1,4-benzoxazepin-7-yl}-1,3-dihydro-2H-indol-2-one]
250 to 1000	Cc1nc2ncc(-c3ccc4c(c3)CN(c3ncnc(NC(C)C)c3C)CCO4)cc2[nH]1 [Example 525, 5-methyl-N-(1-methylethyl)-6-[7-(2-methyl-1H-imidazo[4,5-b]pyridin-6-yl)-2,3-dihydro-1,4-benzoxazepin-4(5H)-yl]pyrimidin-4-amine]
10 to 50	CN(C)Cc1nc2c(c(N3CCOc4ccc(-c5cnc6sc(N)nc6c5)cc4C3)n1)CC(C)(C)CC2 [Example 526, 6-(4-{2-[(dimethylamino)methyl]-6,6-dimethyl-5,6,7,8-tetrahydroquinazolin-4-yl}-2,3,4,5-tetrahydro-1,4-benzoxazepin-7-yl)[1,3]thiazolo[5,4-b]pyridin-2-amine]
250 to 1000	COc1ccc2c(N3CCOc4ccc(-c5cnc6sc(N)nc6c5)cc4C3)nc(CN(C)C)nc2c1 [Example 527, 6-(4-{2-[(dimethylamino)methyl]-7-(methyloxy)quinazolin-4-yl}-2,3,4,5-tetrahydro-1,4-benzoxazepin-7-yl)[1,3]thiazolo[5,4-b]pyridin-2-amine]
250 to 1000	Cc1nc(Nc2ccccc2)c(C)c(N2CCOc3ccc(-c4ccc5nc[nH]c5c4)cc3C2)n1 [Example 529, 6-[7-(1H-benzimidazol-6-yl)-2,3-dihydro-1,4-benzoxazepin-4(5H)-yl]-2,5-dimethyl-N-phenylpyrimidin-4-amine]
10 to 50	Cc1nc(Nc2ccccc2)c(C)c(N2CCOc3ccc(-c4cnc5nc[nH]c5c4)cc3C2)n1 [Example 530]
250 to 1000	Cc1c(NC2CCN(C)CC2)ncnc1N1CCOc2ccc(-c3cnc4nc(C5CC5)[nH]c4c3)cc2C1 [Example 531, 6-[7-(2-cyclopropyl-1H-imidazo[4,5-b]pyridin-6-yl)-2,3-dihydro-1,4-benzoxazepin-4(5H)-yl]-5-methyl-N-(1-methylpiperidin-4-yl)pyrimidin-4-amine]
250 to 1000	Cc1c(NC2CCOCC2)ncnc1N1CCOc2ccc(-c3cnc4nc(C5CC5)[nH]c4c3)cc2C1 [Example 532, 6-[7-(2-cyclopropyl-1H-imidazo[4,5-b]pyridin-6-yl)-2,3-dihydro-1,4-benzoxazepin-4(5H)-yl]-5-methyl-N-(tetrahydro-2H-pyran-4-yl)pyrimidin-4-amine]
≥ 2000	Cc1c(NCC2CCN(C)CC2)ncnc1N1CCOc2ccc(-c3cnc4nc(C5CC5)[nH]c4c3)cc2C1 [Example 533, 6-[7-(2-cyclopropyl-1H-imidazo[4,5-b]pyridin-6-yl)-2,3-dihydro-1,4-benzoxazepin-4(5H)-yl]-5-methyl-N-[(1-methylpiperidin-4-yl)methyl]pyrimidin-4-amine]
1000 to 2000	Cc1c(NCCC2CCCN2C)ncnc1N1CCOc2ccc(-c3cnc4nc(C5CC5)[nH]c4c3)cc2C1 (stereo not drawn) [Example 534, 6-[7-(2-cyclopropyl-1H-imidazo[4,5-b]pyridin-6-yl)-2,3-dihydro-1,4-benzoxazepin-4(5H)-yl]-5-methyl-N-[2-(1-methylpyrrolidin-2-yl)ethyl]pyrimidin-4-amine]
50 to 250	Cc1c(N2CCOc3ccc(-c4cnc5nc(C6CC6)[nH]c5c4)cc3C2)ncnc1N(C)[C@@H](C)c1ccccc1 [Example 536, 6-[7-(2-cyclopropyl-1H-imidazo[4,5-b]pyridin-6-yl)-2,3-dihydro-1,4-benzoxazepin-4(5H)-yl]-N,5-dimethyl-N-[(1S)-1-phenylethyl]pyrimidin-4-amine]
≤ 10	CC[C@H]1CCc2c(ncnc2N2CCOc3ccc(-c4cnc5nc(N)[nH]c5c4)cc3C2)C1 [Example 537, 6-{4-[(7S)-7-ethyl-5,6,7,8-tetrahydroquinazolin-4-yl]-2,3,4,5-tetrahydro-1,4-benzoxazepin-7-yl}-1H-imidazo[4,5-b]pyridin-2-amine]
50 to 250	CCNc1nc2ccc(-c3ccc4c(c3)CN(c3nc(C)nc(Nc5ccccc5)c3C)CCO4)cc2[nH]1 [Example 538, 6-{4-[2,5-dimethyl-6-(phenylamino)pyrimidin-4-yl]-2,3,4,5-tetrahydro-1,4-benzoxazepin-7-yl}-N--ethyl-1H-benzimidazol-2-amine]
50 to 250	COc1ccc2c(N3CCOc4ccc(-c5ccc6nc(N)[nH]c6c5)cc4C3)nc(C)nc2c1 [Example 539, 6-{4-[2-methyl-7-(methyloxy)quinazolin-4-yl]-2,3,4,5-tetrahydro-1,4-benzoxazepin-7-yl}-1H-benzimidazol-2-amine]
10 to 50	Cc1c(Nc2ccccc2)ncnc1N1CCOc2ccc(-c3cnc4nc(N)[nH]c4c3)cc2C1 [Example 540, 6-{4-[5-methyl-6-(phenylamino)pyrimidin-4-yl]-2,3,4,5-tetrahydro-1,4-benzoxazepin-7-yl}-1H-imidazo[4,5-b]pyridin-2-amine]
≥ 2000	c1cc(N2CCOc3ccc(-c4ccc5nc[nH]c5c4)cc3C2)ncn1 [Example 541, 7-(1H-benzimidazol-6-yl)-4-pyrimidin-4-yl-2,3,4,5-tetrahydro-1,4-benzoxazepine]
50 to 250	COc1ccc2c(N3CCOc4ccc(-c5cnc6nc[nH]c6c5)cc4C3)nc(C)nc2c1 [Example 542, 7-(1H-imidazo[4,5-b]pyridin-6-yl)-4-[2-methyl-7-(methyloxy)quinazolin-4-yl]-2,3,4,5-tetrahydro-1,4-benzoxazepine]
1000 to 2000	c1cc(N2CCOc3ccc(-c4cnc5nc[nH]c5c4)cc3C2)ncn1 [Example 543, 7-(1H-imidazo[4,5-b]pyridin-6-yl)-4-pyrimidin-4-yl-2,3,4,5-tetrahydro-1,4-benzoxazepine]
